Ends that are not written are not given here.
Columns and labels:
mouse RBCs = settings: cited from earlier work
Source text: The hemolysis rates of K70 were less than 1%, even at the maximum c ...

MRSA 936 = type: cell-based, Staphylococcus aureus; settings: 936, 18 h
Description: (§1) The minimum inhibitory concentration (MIC) of the Feleucin-K3 analogs was tested by the broth microdilution method. Sensitive bacteria and drug-resistant bacteria were diluted to 1 × 10^6 CFU/mL, according to the McFarland standards. Bacterial suspension and peptide solutions (8–128 μg/mL) were incubated at 37 °C for 18 h. The minimum concentration without obvious bacterial growth was the MIC of the peptides. The stability of the analogs in a physiological salt environment was also investigated. In brief, salt powder (450-mM NaCl) was dissolved in deionized water, and the following investigational steps were the same as those described before. The above steps were repeated several times, until the same value was obtained three times.

MRSA 23 = type: cell-based, Staphylococcus aureus; settings: 23, 18 h
Description: as §1

MRSA 71 = type: cell-based, Staphylococcus aureus; settings: 71, 18 h
Description: as §1

MRSA 113 = type: cell-based, Staphylococcus aureus; settings: 113, 18 h
Description: as §1

MRSA 74 = type: cell-based, Staphylococcus aureus; settings: 74, 18 h
Description: as §1

MRSA 51 = type: cell-based, Staphylococcus aureus; settings: 51, 18 h
Description: as §1

MRSA 48 = type: cell-based, Staphylococcus aureus; settings: 48, 18 h
Description: as §1

S. aureus 794 = type: cell-based, Staphylococcus aureus; settings: 794, 18 h
Description: as §1

MRSA ATCC 33591 = type: cell-based, Staphylococcus aureus; settings: ATCC 33591, 18 h
Description: as §1

MRSA 75 = type: cell-based, Staphylococcus aureus; settings: 75, 18 h
Description: as §1

MRSA 52 = type: cell-based, Staphylococcus aureus; settings: 52, 18 h
Description: as §1

S. aureus 725 = type: cell-based, Staphylococcus aureus; settings: 725, 18 h
Description: as §1

MRSA 54 = type: cell-based, Staphylococcus aureus; settings: 54, 18 h
Description: as §1

A. baumannii 97830 = type: cell-based, Acinetobacter baumannii; settings: 97830, 18 h
Description: as §1

A. baumannii 9828 = type: cell-based, Acinetobacter baumannii; settings: 9828, 18 h
Description: as §1

A. baumannii 98110 = type: cell-based, Acinetobacter baumannii; settings: 98110, 18 h
Description: as §1

A. baumannii 9896 = type: cell-based, Acinetobacter baumannii; settings: 9896, 18 h
Description: as §1

A. baumannii 91105 = type: cell-based, Acinetobacter baumannii; settings: 91105, 18 h
Description: as §1

A. baumannii 9336 = type: cell-based, Acinetobacter baumannii; settings: 9336, 18 h
Description: as §1

A. baumannii 91199 = type: cell-based, Acinetobacter baumannii; settings: 91199, 18 h
Description: as §1

A. baumannii 9331 = type: cell-based, Acinetobacter baumannii; settings: 9331, 18 h
Description: as §1

A. baumannii 91152 = type: cell-based, Acinetobacter baumannii; settings: 91152, 18 h
Description: as §1

A. baumannii 9840 = type: cell-based, Acinetobacter baumannii; settings: 9840, 18 h
Description: as §1

A. baumannii 91869 = type: cell-based, Acinetobacter baumannii; settings: 91869, 18 h
Description: as §1

A. baumannii 51243 = type: cell-based, Acinetobacter baumannii; settings: 51243, 18 h
Description: as §1

A. baumannii 91944 = type: cell-based, Acinetobacter baumannii; settings: 91944, 18 h
Description: as §1

A. baumannii 8309 = type: cell-based, Acinetobacter baumannii; settings: 8309, 18 h
Description: as §1

A. baumannii 92359 = type: cell-based, Acinetobacter baumannii; settings: 92359, 18 h
Description: as §1

A. baumannii 822144 = type: cell-based, Acinetobacter baumannii; settings: 822144, 18 h
Description: as §1

A. baumannii 5444 = type: cell-based, Acinetobacter baumannii; settings: 5444, 18 h
Description: as §1

A. baumannii 9234 = type: cell-based, Acinetobacter baumannii; settings: 9234, 18 h
Description: as §1

A. baumannii 9236 = type: cell-based, Acinetobacter baumannii; settings: 9236, 18 h
Description: as §1

A. baumannii 91810 = type: cell-based, Acinetobacter baumannii; settings: 91810, 18 h
Description: as §1

A. baumannii = experiment: Resistance development assay, sequential passaging; type: cell-based, Acinetobacter baumannii; settings: serial passage at sub-MIC, 20 passages
Description: (§2) Serial passage and MIC determination were used to explore whether the bacteria developed drug resistance. On the first day, the MICs of the peptides were determined as described above. The next day, the bacterial suspension of sub-MIC concentration was cultivated to the mid-log phase. The MICs of the peptides were detected again, and this process was repeated for 20 days. The MICs of the antibiotics, including amoxicillin (AML), ceftazidime (CAZ) and imipenem, were also determined as controls.

[1] = tested on: multidrug-resistant A. baumannii; design: method as in PMID 32590058; settings: previous studies; cited from earlier work
S. aureus = experiment: Resistance development assay, sequential passaging; type: cell-based, Staphylococcus aureus; settings: serial passage at sub-MIC
Description: as §2

MRSA = tested on: MRSA; design: method as in PMID 32590058; settings: cited from earlier work

FLKLLKKLL-NH2 [Feleucin-K3]
hemolytic rate at 256 µg/mL (mouse RBCs): more than 40%
MIC, MRSA 936 (MRSA 936): 8 µg/mL
MIC, MRSA 23 (MRSA 23): 8 µg/mL
MIC, MRSA 71 (MRSA 71): 8 µg/mL
MIC, MRSA 113 (MRSA 113): 8 µg/mL
MIC, MRSA 74 (MRSA 74): 8 µg/mL
MIC, MRSA 51 (MRSA 51): 8 µg/mL
MIC, MRSA 48 (MRSA 48): 8 µg/mL
MIC, S. aureus 794 (S. aureus 794): 16 µg/mL
MIC, MRSA ATCC 33591 (MRSA ATCC 33591): 8 µg/mL
MIC, MRSA 75 (MRSA 75): 8 µg/mL
MIC, MRSA 52 (MRSA 52): 8 µg/mL
MIC, S. aureus 725 (S. aureus 725): 8 µg/mL
MIC, MRSA 54 (MRSA 54): 8 µg/mL
MIC, A. baumannii 97830 (A. baumannii 97830): 8 µg/mL
MIC, A. baumannii 9828 (A. baumannii 9828): 16 µg/mL
MIC, A. baumannii 98110 (A. baumannii 98110): 8 µg/mL
MIC, A. baumannii 9896 (A. baumannii 9896): 8 µg/mL
MIC, A. baumannii 91105 (A. baumannii 91105): 8 µg/mL
MIC, A. baumannii 9336 (A. baumannii 9336): 8 µg/mL
MIC, A. baumannii 91199 (A. baumannii 91199): 8 µg/mL
MIC, A. baumannii 9331 (A. baumannii 9331): 16 µg/mL
MIC, A. baumannii 91152 (A. baumannii 91152): 8 µg/mL
MIC, A. baumannii 9840 (A. baumannii 9840): 8 µg/mL
MIC, A. baumannii 91869 (A. baumannii 91869): 8 µg/mL
MIC, A. baumannii 51243 (A. baumannii 51243): 8 µg/mL
MIC, A. baumannii 91944 (A. baumannii 91944): 8 µg/mL
MIC, A. baumannii 8309 (A. baumannii 8309): 8 µg/mL
MIC, A. baumannii 92359 (A. baumannii 92359): 8 µg/mL
MIC, A. baumannii 822144 (A. baumannii 822144): 8 µg/mL
MIC, A. baumannii 5444 (A. baumannii 5444): 8 µg/mL
MIC, A. baumannii 9234 (A. baumannii 9234): 8 µg/mL
MIC, A. baumannii 9236 (A. baumannii 9236): 16 µg/mL
MIC, A. baumannii 91810 (A. baumannii 91810): 8 µg/mL

C[C@@H](O)[C@H]1C(=O)N2C(C(=O)O)=C(SCCN=CN)C[C@H]12 [imipenem]
maximum fold increase of MIC, A. baumannii (A. baumannii): ≤ 16 fold
MIC against multidrug-resistant A. baumannii [1]: ≤ 64 µg/mL

CC1(C)S[C@@H]2[C@H](NC(=O)[C@H](N)c3ccc(O)cc3)C(=O)N2[C@H]1C(=O)O [AML, amoxicillin]
maximum fold increase of MIC, S. aureus (S. aureus; 20 passages): ≤ 1024 fold
passage at which resistant mutants were produced (S. aureus; strain taken as S. aureus): 5 passage
MIC against MRSA (MRSA): up to 128 µg/mL

— publication PMC8160793, “Potent Antimicrobial and Antibiofilm Activities of Feleucin-K3 Analogs Modified by α-(4-Pentenyl)-Ala against Multidrug-Resistant Bacteria” (Biomolecules, 2021)
